{"source": "patent US9493466B2", "about": "“Treatment of cancer with TOR kinase inhibitors” (Signal Pharmaceuticals, LLC, priority 2011, dated 2016)", "key": {"[1]": {"tested_on": "PC-3, A549, HCT 116, U87-MG, MDA-MB-231, NCI-H23, NCI-H460, T47D", "assay": "Growth inhibition assay for cell lines with varying sensitivity to rapamycin", "format": "cell-based", "details": "3 days; including cell types partially sensitive or insensitive to Rapamycin; FIG. 8", "description": "Growth Inhibition Assay for Cell Lines with Varying Sensitivity to Rapamycin (Compound 1). Cells were plated in 96-well plates at densities determined for each cell line and the following day were treated with a range of Compound 1 concentrations. The cells were incubated for 3 days at 37° C. and then […] of WST-1 (Roche) for PC-3, A549, HCT 116, U87-MG, MDA-MB-231, and NCI-H23) or […] CellTiter-Glo reagent (Promega) for NCI-H460, T47D) was added to each well and the assay was completed according to manufacturer protocols. The percentage inhibition at each concentration of compound was normalized to the DMSO control values. The percentage inhibition was determined for each replicate and then the 3 values were averaged for each set of triplicate wells. All data were analyzed using XLfit from IDBS. The formula used for determining IC50 in Xlfit was model number 205, which utilizes a 4-parameter logistic model or sigmoidal dose-response model to calculate IC50 values. IC50 values are reported as an average.\nRapamycin effects on proliferation tend to plateau in most cell lines."}, "U87MG tumors": {"tested_on": "U87MG tumors", "assay": "U87MG human glioblastoma xenograft model (Compound 1)", "format": "in vivo, SCID mice", "details": "for Tumor growth delay (TGD): to reach 1000 mm^3; for loss of initial body mass: end of first cycle (p<0.01)", "description": "U87MG Human Glioblastoma Xenograft Model (Compound 1). Efficacy Studies: Groups of female SCID mice bearing U87MG tumors (n=8-10/group) were dosed orally with vehicle or Compound 1 throughout the study, starting when tumor volumes reached approximately 200 mm^3. The twice daily (BID) dose groups were dosed with a 10-hour separation between morning and evening doses. In the positive control group, rapamycin was administered Q3D via intraperitoneal (IP) route. At the end of each study, plasma and/or tumor samples were collected.\nCell Line and Culture. U87MG cell line was obtained from American Tissue Culture Collection (ATCC) (Gaithersberg, Md.) and grown in growth medium containing MEM, 2 mM L-glutamine, 0.1 mM non-essential amino acids and 1 mM sodium pyruvate and 10% fetal bovine serum (FBS). The cells were detached from tissue culture flasks using trypsin-EDTA. After centrifugation, the cell pellets were suspended in phosphate buffered saline (PBS) and counted using a hemocytometer. The final volume was adjusted to 5×10^6 cells/0.1 mL of PBS.\nTumor Cell Inoculation. Mice were anesthetized with inhaled isoflurane and then inoculated with U87MG tumor cells subcutaneously on the right hind leg with 0.1 mL of a single cell suspension in PBS using a sterile 1 mL syringe fitted with a 26 gauge needle. Following inoculation, the mice were returned to microisolator cages\nRandomization of Animals. Following inoculation, tumors were allowed to grow to about 200 mm^3 prior to randomization. The typical number of days required for tumors to reach 200 mm^3 was 14-15 days. The tumor of each animal was measured and animals with tumors ranging between 175-250 mm^3 were included in the study. Animals from the pool were then distributed randomly into various cages and the cages were randomly assigned to vehicle, positive control, or test article groups. All of the mice were tagged with metal ear tags on the right ear.\nTest Article Preparation and Administration. Suspensions of Compound 1 were prepared in aqueous 0.5% CMC and 0.25% Tween-80. The formulations were homogenized using a Teflon™ pestle and mortar (Potter-Elvehjem tissue grinder). Between the doses, the formulated compound was stored under constant stirring using a magnetic stirrer at 4° C. in the dark. The test article and vehicle were administered by oral gavage. The positive control, rapamycin, was prepared as solution in 2% ethanol, 45% polyethyleneglycol 400, and 53% saline and administered by IP injection. Sterile syringes and gavage needles were used for compound administration. All of the procedures including injections were done in biosafety cabinets disinfected with 70% ethanol prior to use.\nTumor Measurements. Tumor volumes were determined prior to the initiation of treatment and were considered as the starting volumes. Thereafter, tumors were measured twice a week for the duration of the study. The long and short axes of each tumor were measured using a digital caliper in millimeters. Tumor volumes were calculated using the formula: width^2×length/2. The tumor volumes were expressed in cubic millimeters (mm^3).\nTumor Growth Delay (TGD) Calculations. Tumor growth delay is the difference in days for treated versus control tumors to reach a volume of 1000 mm^3. The TGD was calculated from the data plotted in a graph format.\nBody Weight Measurements. Initial body weights were recorded prior to the initiation of treatment using a digital scale. The percent body weight change during the course of the study was calculated using initial body weight measurements. Body weights of each animal were measured twice a week at the same time as the tumor measurements. Body weights were measured more frequently if significant decreases were noted during the course of the study."}}, "data": [{"smiles": "CO[C@H]1CC[C@H](N2C(=O)CNc3ncc(-c4ccc(C(C)(C)O)nc4)nc32)CC1", "note": "[Compound 1, 7-(6-(2-hydroxypropan-2-yl)pyridin-3-yl)-1-((1r,4r)-4-methoxycyclohexyl)-3,4-dihydropyrazino-[2,3-b]pyrazin-2(1H)-one]", "values": [{"measurement": "cell growth inhibition", "setting": "[1]", "result": "potent cell growth inhibition"}, {"measurement": "average tumor volume", "setting": "U87MG tumors; 5 mg/kg BID oral, Day 24 (dosing from Day 14)", "result": "149±9", "unit": "mm^3"}, {"measurement": "average tumor volume", "setting": "U87MG tumors; 5 mg/kg BID oral, Day 31", "result": "208±31", "unit": "mm^3"}, {"measurement": "tumor volume reduction compared with vehicle control", "setting": "U87MG tumors; 5 mg/kg BID oral, Day 31", "result": 91, "unit": "%"}, {"measurement": "change in body weight", "setting": "U87MG tumors; 5 mg/kg BID, 18 days", "result": "No significant change"}, {"measurement": "Tumor growth delay (TGD)", "setting": "U87MG tumors; 5 mg/kg BID", "result": 11, "unit": "days"}, {"measurement": "average tumor volume", "setting": "U87MG tumors; 10 mg/kg BID oral, Day 24 (dosing from Day 14)", "result": "96±4", "unit": "mm^3"}, {"measurement": "average tumor volume", "setting": "U87MG tumors; 10 mg/kg BID oral, Day 31", "result": "96±13", "unit": "mm^3"}, {"measurement": "tumor volume reduction compared with vehicle control", "setting": "U87MG tumors; 10 mg/kg BID oral, Day 31", "result": 96, "unit": "%"}, {"measurement": "loss of initial body mass", "setting": "U87MG tumors; 10 mg/kg BID", "result": "about 10%"}, {"measurement": "Tumor growth delay (TGD)", "setting": "U87MG tumors; 10 mg/kg BID", "result": 20, "unit": "days"}, {"measurement": "average tumor volume", "setting": "U87MG tumors; 25 mg/kg Q2D oral, Day 24 (dosing from Day 14)", "result": "101±8", "unit": "mm^3"}, {"measurement": "average tumor volume", "setting": "U87MG tumors; 25 mg/kg Q2D oral, Day 31", "result": "116±15", "unit": "mm^3"}, {"measurement": "tumor volume reduction compared with vehicle control", "setting": "U87MG tumors; 25 mg/kg Q2D oral, Day 31", "result": 95, "unit": "%"}, {"measurement": "loss of initial body mass", "setting": "U87MG tumors; 25 mg/kg Q2D", "result": "about 10%"}, {"measurement": "Tumor growth delay (TGD)", "setting": "U87MG tumors; 25 mg/kg Q2D", "result": 17, "unit": "days"}, {"measurement": "tumor regression", "setting": "U87MG tumors; 5 and 10 mg/kg BID and 25 mg/kg Q2D, persisted until Day 31", "result": "showed tumor regression"}, {"measurement": "lowest efficacious dose as determined by 65% tumor volume inhibition", "setting": "U87MG tumors; QD oral, 3 weeks", "result": 1, "unit": "mg/kg"}, {"measurement": "change in body weight", "setting": "U87MG tumors; QD study, 3 weeks, any of the groups", "result": "No statistically significant change"}, {"measurement": "tumor volume reduction", "setting": "U87MG tumors; all dose levels tested (0.5, 1, 3, 5 mg/kg QD, 3 weeks), Day 34", "result": "Significant (p<0.001) tumor volume reduction"}]}]}
